System: pentagastrin-stimulated acid secretion of the perfused rat stomach
Assay: Secretion-inhibiting action on the perfused rat stomach (pentagastrin-stimulated acid secretion, in vivo)
Settings: anesthetized female CD rat, pentagastrin 1 μg/kg i.v. infusion, dose 3 μmol/kg i.d. (intraduodenal)
Excerpt: Testing of the secretion-inhibiting action on the perfused rat stomach
In Table A which follows, the influence of the compounds according to the invention on the pentagastrin-stimulated acid secretion of the perfused rat stomach after intraduodenal administration in vivo is shown.
The abdomen of anesthetized rats (CD rat, female, 200-250 g; 1.5 g/kg i.m. urethane) was opened after tracheotomy by a median upper abdominal incision and a PVC catheter was fixed transorally in the esophagus and another via the pylorus such that the ends of the tube just projected into the gastric lumen. The catheter leading from the pylorus led outward into the right abdominal wall through a side opening.
After thorough rinsing (about 50-100 ml), warm (37° C.) physiological NaCl solution was continuously passed through the stomach (0.5 ml/min, pH 6.8-6.9; Braun-Unita I). The pH (pH meter 632, glass electrode EA 147; φ=5 mm, Metrohm) and, by titration with a freshly prepared 0.01 N NaOH solution to pH 7 (Dosimat 665 Metrohm), the secreted HCl were determined in the effluent in each case collected at an interval of 15 minutes.
The gastric secretion was stimulated by continuous infusion of […] (=1.65 ml/h) of i.v. pentagastrin (left femoral vein) about 30 min after the end of the operation (i.e. after determination of 2 preliminary fractions). […]

Structure (SMILES) | Inhibition of acid secretion [%]
Cc1nc2c3c(ccn2c1C)[C@@H](N(C)C)[C@@H](O)CN3 [Example 19, (7R,8S,9R)-8-Hydroxy-7-(dimethylamino)-2,3-dimethyl-7,8,9,10-tetrahydroimidazo[1.2-h]-[1.7]naphthyridine] | 64
Cc1nc2c3c(ccn2c1C)[C@@H](N1CCOCC1)[C@@H](O)CN3 [Example 9, (7R,8S,9R)-8-Hydroxy-2,3-dimethyl-7-(4-morphollno)-7,8,9,10-tetrahydroimidazo[1.2-h]-[1.7]naphthyridine] | 44

— patent publication US20040235882A1, “Amino-substituted imidazopyridines for the treatment of gastrointestial diseases” (priority 2001, published 2004)
